These results are taken from ChEMBL document CHEMBL1201862, “PubChem BioAssay data set” (2004).

Assay [1] has as its target T1, Sentrin-specific protease 7 (Homo sapiens, UniProt Q9BQF6).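 Also: Luminescence-based dose-response confirmation of ultra-high-throughput screening hits, measuring inhibition of SENP7.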
T1 sequence (Q9BQF6 whole entry): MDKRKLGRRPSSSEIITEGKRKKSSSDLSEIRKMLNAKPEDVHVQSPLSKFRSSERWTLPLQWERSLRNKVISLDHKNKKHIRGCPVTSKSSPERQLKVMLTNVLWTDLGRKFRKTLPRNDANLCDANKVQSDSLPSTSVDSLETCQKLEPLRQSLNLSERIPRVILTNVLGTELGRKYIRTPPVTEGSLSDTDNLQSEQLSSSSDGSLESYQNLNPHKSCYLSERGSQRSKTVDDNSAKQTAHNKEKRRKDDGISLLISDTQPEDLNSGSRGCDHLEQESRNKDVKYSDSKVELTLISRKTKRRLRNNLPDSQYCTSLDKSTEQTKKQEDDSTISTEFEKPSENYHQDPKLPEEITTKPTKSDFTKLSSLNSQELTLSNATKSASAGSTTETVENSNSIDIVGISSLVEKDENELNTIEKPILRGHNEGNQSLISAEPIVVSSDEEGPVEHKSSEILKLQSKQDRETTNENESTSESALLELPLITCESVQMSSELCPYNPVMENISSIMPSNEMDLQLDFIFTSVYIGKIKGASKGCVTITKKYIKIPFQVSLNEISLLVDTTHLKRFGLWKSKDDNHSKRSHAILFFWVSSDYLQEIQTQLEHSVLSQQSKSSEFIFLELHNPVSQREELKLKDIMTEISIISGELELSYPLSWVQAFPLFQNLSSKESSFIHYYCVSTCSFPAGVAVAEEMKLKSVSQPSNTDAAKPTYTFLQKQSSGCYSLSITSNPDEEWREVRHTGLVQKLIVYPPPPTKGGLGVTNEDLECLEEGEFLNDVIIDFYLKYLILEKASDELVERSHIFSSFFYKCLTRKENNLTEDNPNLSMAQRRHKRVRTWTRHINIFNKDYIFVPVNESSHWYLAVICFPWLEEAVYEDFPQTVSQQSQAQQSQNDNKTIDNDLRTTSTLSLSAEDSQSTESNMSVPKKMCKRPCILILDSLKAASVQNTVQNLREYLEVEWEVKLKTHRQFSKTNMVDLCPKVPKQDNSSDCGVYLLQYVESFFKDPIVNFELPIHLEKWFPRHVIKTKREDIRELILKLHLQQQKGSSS
In kind it is functional.

In assay [2] the target is T2, Apoptotic protease-activating factor 1 (Homo sapiens, UniProt O14727).
T2 sequence (O14727 whole entry): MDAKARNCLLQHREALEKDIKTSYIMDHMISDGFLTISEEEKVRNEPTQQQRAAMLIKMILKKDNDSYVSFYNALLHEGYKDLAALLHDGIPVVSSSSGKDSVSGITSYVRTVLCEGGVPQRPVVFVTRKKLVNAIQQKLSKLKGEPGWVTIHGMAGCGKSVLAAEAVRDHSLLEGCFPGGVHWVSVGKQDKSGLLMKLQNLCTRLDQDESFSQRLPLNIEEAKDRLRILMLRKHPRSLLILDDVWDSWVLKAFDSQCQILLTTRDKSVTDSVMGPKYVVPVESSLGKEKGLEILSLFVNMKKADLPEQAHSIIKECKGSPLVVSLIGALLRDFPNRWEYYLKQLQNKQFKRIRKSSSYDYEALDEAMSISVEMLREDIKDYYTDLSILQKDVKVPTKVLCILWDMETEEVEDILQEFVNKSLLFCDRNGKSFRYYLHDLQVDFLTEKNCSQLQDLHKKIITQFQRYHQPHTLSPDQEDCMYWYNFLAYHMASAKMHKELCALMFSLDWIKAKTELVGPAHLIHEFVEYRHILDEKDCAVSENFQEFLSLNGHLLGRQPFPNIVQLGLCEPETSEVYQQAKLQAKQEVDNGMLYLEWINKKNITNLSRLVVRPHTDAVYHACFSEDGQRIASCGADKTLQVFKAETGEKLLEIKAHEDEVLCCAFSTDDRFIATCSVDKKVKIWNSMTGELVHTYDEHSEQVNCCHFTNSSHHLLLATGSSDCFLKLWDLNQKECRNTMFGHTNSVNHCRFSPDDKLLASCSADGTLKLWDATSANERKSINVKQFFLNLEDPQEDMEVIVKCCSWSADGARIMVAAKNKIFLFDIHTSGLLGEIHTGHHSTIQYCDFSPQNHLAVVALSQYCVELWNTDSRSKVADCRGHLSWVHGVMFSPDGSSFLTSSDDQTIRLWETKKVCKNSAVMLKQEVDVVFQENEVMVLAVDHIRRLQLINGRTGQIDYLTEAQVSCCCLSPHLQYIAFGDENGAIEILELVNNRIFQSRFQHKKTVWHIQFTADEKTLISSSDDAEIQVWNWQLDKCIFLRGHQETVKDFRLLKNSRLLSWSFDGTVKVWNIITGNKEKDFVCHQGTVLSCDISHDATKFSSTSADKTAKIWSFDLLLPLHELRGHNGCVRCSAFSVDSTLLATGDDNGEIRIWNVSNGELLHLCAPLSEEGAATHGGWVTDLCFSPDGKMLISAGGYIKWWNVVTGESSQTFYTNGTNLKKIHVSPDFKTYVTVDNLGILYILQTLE
In kind it is functional.

Assay [3] has as its target Cyclin-dependent kinase 2 (Homo sapiens, UniProt P24941). It counts as functional.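 Also: CDK2 measured as one member of a broad kinome profiling panel.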
The target of assay [4] is Inhibitor of nuclear factor kappa-B kinase subunit alpha (Homo sapiens, UniProt O15111). It counts as functional.
Assay [5] has as its target Cyclin-dependent kinase 5 (Homo sapiens, UniProt Q00535). It counts as functional.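 Also: CDK5 measured as one member of a kinase profiling panel.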
The target of assay [6] is Mitogen-activated protein kinase 1 (Homo sapiens, UniProt P28482). It counts as functional.
Assay [7] deals with Vascular endothelial growth factor receptor 3 (Homo sapiens, UniProt P35916). It counts as functional.
The target in assay [8] is Rho-associated protein kinase 1 (Homo sapiens, UniProt Q13464). It counts as functional.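 Also: measured within a broad kinome-wide panel profiling many kinases.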
Assay [9] has as its target Serine/threonine-protein kinase pim-2 (Homo sapiens, UniProt Q9P1W9). It counts as functional.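 Also: value comes from a broad kinase panel profiling study in which PIM2 was one of the panel members.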
In assay [10] the target is Dual specificity tyrosine-phosphorylation-regulated kinase 1A (Homo sapiens, UniProt Q13627). In kind it is functional.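 Also: measured against DYRK1A as one member of a broad kinome profiling panel.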
A short description of assay [11]: mammalian cell cytotoxicity, dose response, cytotoxicity control, plate reader, cherry-pick samples (AID 504397). In kind it is functional, cell-based.
The next assay has as its system HEK293. The experiment in a line: HEK cell cytotoxicity by LDH release, dose response, cytotoxicity control for IDE activator project, fluorescence, HEK cells (AID 588440).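 Also: cytotoxicity by LDH release measuring loss of membrane integrity.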 It counts as functional, cell-based. As to conditions: Homo sapiens.
Assay [12] in a line: inhibitors of PGC1a acetylation in cells, dose response, cell-based, cherry-picked samples (AID 720514).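 Also: potency may reflect raised or lowered acetylation signal.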 In kind it is functional.

Activity calls are given as the source filed them.

Chain of Mitogen-activated protein kinase 1 (P28482 whole entry): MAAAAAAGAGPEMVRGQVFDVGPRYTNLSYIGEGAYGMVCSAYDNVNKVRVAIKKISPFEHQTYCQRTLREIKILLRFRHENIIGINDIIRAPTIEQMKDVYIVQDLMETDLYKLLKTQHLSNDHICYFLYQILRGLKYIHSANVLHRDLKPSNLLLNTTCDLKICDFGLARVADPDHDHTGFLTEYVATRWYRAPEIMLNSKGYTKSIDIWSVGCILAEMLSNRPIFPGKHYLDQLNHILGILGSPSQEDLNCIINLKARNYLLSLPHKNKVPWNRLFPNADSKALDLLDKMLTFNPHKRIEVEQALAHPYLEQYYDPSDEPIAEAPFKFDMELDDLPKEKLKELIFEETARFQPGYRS
Chain of Vascular endothelial growth factor receptor 3 (P35916 whole entry): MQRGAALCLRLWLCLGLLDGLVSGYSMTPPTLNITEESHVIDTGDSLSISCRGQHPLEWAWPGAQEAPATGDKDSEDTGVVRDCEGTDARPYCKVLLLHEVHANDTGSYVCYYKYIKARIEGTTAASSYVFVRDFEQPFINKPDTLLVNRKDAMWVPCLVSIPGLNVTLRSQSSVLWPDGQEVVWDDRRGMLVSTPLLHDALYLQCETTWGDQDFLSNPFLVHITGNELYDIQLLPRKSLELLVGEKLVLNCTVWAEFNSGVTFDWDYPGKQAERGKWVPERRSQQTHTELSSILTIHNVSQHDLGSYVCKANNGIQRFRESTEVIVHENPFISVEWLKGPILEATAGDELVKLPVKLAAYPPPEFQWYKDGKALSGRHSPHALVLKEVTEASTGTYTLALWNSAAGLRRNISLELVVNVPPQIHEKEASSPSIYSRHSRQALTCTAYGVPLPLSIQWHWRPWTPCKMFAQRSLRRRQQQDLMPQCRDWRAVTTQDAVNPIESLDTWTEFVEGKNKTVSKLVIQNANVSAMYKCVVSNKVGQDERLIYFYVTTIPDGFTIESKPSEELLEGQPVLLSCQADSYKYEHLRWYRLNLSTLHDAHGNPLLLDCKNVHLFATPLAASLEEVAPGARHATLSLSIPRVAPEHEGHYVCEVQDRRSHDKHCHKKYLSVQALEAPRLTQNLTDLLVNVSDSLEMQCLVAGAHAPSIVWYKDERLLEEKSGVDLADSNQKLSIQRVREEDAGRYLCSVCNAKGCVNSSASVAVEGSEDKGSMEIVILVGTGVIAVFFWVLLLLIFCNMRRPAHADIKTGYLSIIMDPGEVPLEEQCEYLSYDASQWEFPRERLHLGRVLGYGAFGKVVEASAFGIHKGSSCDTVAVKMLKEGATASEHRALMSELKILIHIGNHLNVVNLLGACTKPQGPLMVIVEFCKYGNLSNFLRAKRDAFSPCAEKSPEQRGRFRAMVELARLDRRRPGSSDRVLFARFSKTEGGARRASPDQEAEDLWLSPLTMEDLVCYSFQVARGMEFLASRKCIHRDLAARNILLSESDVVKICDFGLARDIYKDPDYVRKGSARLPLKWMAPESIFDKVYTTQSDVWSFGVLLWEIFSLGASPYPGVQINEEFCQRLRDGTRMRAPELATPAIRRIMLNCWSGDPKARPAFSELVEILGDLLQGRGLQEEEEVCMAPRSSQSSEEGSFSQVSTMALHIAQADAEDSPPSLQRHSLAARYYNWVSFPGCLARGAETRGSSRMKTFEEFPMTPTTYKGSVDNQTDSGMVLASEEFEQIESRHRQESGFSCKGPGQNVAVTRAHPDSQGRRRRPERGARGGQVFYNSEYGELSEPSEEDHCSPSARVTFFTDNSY
Chain of Inhibitor of nuclear factor kappa-B kinase subunit alpha (O15111 whole entry): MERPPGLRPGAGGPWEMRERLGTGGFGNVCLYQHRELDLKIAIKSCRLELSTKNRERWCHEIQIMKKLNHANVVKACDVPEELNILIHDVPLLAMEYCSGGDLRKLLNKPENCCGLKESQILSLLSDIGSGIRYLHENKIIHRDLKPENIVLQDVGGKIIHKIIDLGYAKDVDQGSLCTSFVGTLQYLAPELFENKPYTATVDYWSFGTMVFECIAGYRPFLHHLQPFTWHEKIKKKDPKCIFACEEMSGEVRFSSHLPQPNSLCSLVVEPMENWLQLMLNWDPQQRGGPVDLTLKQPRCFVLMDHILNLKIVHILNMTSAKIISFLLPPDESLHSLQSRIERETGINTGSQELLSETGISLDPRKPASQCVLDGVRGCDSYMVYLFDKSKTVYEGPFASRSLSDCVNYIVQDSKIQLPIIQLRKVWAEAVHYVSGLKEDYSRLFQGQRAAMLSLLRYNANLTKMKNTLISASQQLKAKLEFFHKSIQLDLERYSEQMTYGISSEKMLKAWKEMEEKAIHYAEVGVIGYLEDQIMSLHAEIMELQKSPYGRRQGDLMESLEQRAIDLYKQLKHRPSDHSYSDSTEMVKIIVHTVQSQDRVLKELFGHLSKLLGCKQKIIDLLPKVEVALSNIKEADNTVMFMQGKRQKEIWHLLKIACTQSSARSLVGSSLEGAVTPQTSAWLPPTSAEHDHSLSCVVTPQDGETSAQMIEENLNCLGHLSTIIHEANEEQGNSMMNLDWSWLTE
Chain of Rho-associated protein kinase 1 (Q13464 whole entry): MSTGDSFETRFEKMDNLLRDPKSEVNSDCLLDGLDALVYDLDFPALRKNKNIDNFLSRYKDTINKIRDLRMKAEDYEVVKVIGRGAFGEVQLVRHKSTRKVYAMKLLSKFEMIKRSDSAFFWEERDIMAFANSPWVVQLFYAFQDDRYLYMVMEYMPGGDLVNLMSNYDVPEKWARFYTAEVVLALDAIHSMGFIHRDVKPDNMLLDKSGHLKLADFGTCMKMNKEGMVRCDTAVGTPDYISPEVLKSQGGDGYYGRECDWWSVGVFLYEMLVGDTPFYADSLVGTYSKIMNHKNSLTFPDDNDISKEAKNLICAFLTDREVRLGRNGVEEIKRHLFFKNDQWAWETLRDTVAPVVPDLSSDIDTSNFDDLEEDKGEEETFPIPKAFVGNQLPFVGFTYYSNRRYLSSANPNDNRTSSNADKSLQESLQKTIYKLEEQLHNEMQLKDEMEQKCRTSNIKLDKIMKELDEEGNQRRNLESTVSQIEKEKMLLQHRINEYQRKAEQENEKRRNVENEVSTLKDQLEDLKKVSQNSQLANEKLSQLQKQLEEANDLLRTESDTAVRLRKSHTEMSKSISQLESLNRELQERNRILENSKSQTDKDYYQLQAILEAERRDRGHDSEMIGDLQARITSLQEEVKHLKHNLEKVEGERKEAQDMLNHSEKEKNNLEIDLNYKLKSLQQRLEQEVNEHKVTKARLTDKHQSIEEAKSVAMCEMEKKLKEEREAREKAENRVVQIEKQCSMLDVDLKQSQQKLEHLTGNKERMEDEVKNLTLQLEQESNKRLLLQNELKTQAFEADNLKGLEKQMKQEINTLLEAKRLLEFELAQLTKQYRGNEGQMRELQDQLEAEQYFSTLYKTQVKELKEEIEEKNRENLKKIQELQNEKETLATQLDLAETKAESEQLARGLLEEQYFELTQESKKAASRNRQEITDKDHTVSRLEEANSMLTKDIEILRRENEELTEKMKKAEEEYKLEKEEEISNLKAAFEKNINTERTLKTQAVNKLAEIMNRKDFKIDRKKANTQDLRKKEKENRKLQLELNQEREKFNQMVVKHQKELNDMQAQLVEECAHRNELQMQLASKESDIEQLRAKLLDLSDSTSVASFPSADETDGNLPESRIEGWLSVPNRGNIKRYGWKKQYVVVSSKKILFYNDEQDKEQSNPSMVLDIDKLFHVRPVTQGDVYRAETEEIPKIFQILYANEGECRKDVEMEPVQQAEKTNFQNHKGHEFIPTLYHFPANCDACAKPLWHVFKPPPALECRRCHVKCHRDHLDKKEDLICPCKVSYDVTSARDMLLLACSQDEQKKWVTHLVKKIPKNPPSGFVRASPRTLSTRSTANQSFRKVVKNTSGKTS
Chain of Cyclin-dependent kinase 5 (Q00535 whole entry): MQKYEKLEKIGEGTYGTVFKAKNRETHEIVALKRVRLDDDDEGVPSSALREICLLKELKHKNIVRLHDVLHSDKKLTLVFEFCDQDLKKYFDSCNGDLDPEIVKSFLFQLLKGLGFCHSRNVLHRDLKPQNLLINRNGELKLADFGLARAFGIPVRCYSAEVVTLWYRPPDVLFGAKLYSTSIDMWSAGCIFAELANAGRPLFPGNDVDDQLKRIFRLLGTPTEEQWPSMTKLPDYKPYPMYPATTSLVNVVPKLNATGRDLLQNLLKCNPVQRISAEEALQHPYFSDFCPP
Chain of Serine/threonine-protein kinase pim-2 (Q9P1W9 whole entry): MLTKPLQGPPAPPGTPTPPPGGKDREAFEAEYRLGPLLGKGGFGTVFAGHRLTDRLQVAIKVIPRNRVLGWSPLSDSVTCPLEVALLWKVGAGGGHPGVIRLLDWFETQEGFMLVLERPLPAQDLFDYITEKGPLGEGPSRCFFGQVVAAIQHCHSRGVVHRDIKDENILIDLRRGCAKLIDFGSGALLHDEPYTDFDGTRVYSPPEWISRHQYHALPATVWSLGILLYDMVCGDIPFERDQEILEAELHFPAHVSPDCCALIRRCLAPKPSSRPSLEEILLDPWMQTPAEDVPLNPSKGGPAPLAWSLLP

Consider `CCC(C)NC(=O)c1c(N)n(CCCOC)c2nc3ccccc3nc12` (centres undefined), for which the values for the IC50 in assay [1] and in [2] were 1360 nM (active) and 25900 nM (active), respectively.
`CC(=NNC(=N)N)c1cc(NC(=O)NCCCCCCNC(=O)Nc2cc(C(C)=NNC(=N)N)cc(C(C)=NNC(=N)N)c2)cc(C(C)=NNC(=N)N)c1`: the Ki in assay [3] is 501 nM (active); in assay [4] it was 501 nM (active); in assay [5], 2000 nM (active); in assay [6], > 7940 nM (inactive); in assay [7], > 6310 nM (inactive); in [8], 501 nM (active). The Ki was 200 nM (active) in [9] and > 6310 nM (inactive) in assay [10].
As for `Cc1cc(N)c2cc(NC(=O)/C=C/c3ccccc3Cl)ccc2n1`, the AC50 in assay [11] was 4260 nM (active); in assay [12], 1970 nM (active). The IC50 was 9950 nM (active) in assay [2] and 2630 nM (active) in the assay with HEK293.

One may read the IC50 as the concentration at which inhibition is half-maximal. What is called Ki is a measure of affinity in units of concentration, obtained from inhibition or displacement. Broadly, the AC50 is the midpoint of the concentration-response curve, whichever way the signal moves.
